From patent US20230391868A1, “COMPOSITIONS FOR AND METHODS OF TREATING CANCER” (The George Washington University, priority 2022, published 2023)

Assays:
SM1 melanoma cells = assay: Flow cytometry-based phagocytosis assay, BMDMs co-cultured with SM1 cells; format: cell-based, mouse; details: NextA treated vs untreated macrophages (FIG. 4)
Procedure: To evaluate phagocytosis by flow cytometry, SM1 melanoma cells were co-cultured with A3.1A7 cells or BMDMs derived from wild-type C57/Bl6 mice at a 2:1 ratio for 2 hr. or 4 hr. in serum-free media. Twenty-four (24) hours prior to co-culture, macrophages were polarized to their respective phenotypes as previously described in the presence or absence of NextA, and melanoma cells were untreated or treated with NextA. On the day of the co-culture, melanoma cells were stained with 1 μM of CellTrace™ CFSE Cell Proliferation Kit (ThermoFisher, C34554) and were washed extensively to remove excess dye. Phagocytosis assays were carried out in the presence of anti-mouse CD47 (clone miap301, 127502, Biolegend, San Diego, CA) and its respective isotype control (IgG, 400502, Biolegend), or anti human CD47 (clone CC2C6, 323102, Biolegend) or isotype control (MOPC-21, BE0083, Biolegend) at 25 μg/mL. Co-culture was set up in non-cell culture treated 96 U-well plates. […]
Flow cytometry data was acquired a BD FACS Celesta Cell Analyzer, and data analysis was performed with FlowJo software version 10.3. Phagocytosis was determined as the percentage of CFSE+F4/80+ or CFSE+ CD11b+ cells out of total F4/80+ or total CD11b+ cells. […]

THP1-derived macrophages = assay: M1/M2 marker gene expression in THP1-derived macrophages by qRT-PCR; format: cell-based, human
Procedure: Macrophages were polarized to M1-like phenotype using 50 ng/mL of interferon gamma (IFNγ, 575306, Biolegend) and 100 ng/mL of bacterial lipopolysaccharide (LPS, L2880, Sigma Aldrich, St. Louis, MO) for 24 hours. To polarize macrophages towards the M2-like phenotype, macrophages were stimulated with 20 ng/mL of IL-4 (214-14, PeproTech) and 20 ng/mL of IL-13 (575904, Biolegend). THP1 monocytes were treated with 5 ng/mL of phorbol 12-myristate 13-acetate (PMA) to induce differentiation into macrophages. Once converted to macrophages, media was replaced to remove PMA prior to treatment and/or polarization. Polarization towards M1 and M2 phenotypes was performed with respective recombinant human cytokines from PeproTech: 50 ng/mL of IFNγ (300-02), 20 ng/mL IL-4 (200-04), and 20 ng/mL IL-13 (200-13). 100 ng/mL LPS was also used to polarize toward the M1 phenotype. 3. In vivo Studies.
qRT-PCR: Total RNA was extracted from cells using the Trizol reagent according to manufacturer's instructions (ThermoFisher Scientific, 15596018). Samples were then processed immediately or stored at −80° C. RNA was quantified using a NanoDrop One Spectrophotometer (ThermoFisher Scientific). The 260/280 ratios were routinely over 1.8. Sample cDNA was produced using the iScript cDNA synthesis kit (Bio-Rad, 1708891). Target mRNA was quantified using MyIQ single-color real-time PCR detection system from Bio-Rad (Bio-Rad, Hercules, CA) and iQ SYBR green Supermix (Bio-Rad, 1708882). The following primers were synthesized by Invitrogen (Waltham, MA) with sequences designed by Origene (Rockville, MD): mouse R-actin (MP200232), mouse Nos2 (MP208933), mouse MRC1 (MP207800), human R-actin (HP204660), human IL-1β (HP200544), human MRC1 (HP206121), human NOS2 (HP200591), human CD209 (HP214086), mouse SIRPα (MP215450), mouse LRP1 (MP207604), human LRP1 (HP206040), mouse MFGE8 (MP208190), human MFGE8 (HP225757), mouse CD36 (MP201923), human CD36 (HP200058), and mouse CD47 (MP201932). Primers for mouse ARG-1 (PPM31770C) and human SIRPα (QT01031051) were purchased from Qiagen (Hilden, Germany). Human CD47 primer sequences were obtained from Sudo T, et al and are 5′-[…]-3′ (sense) (SEQ ID NO:01) and 5′-[…]-3′ (antisense) (SEQ ID NO:02) (Sudo T, et al. (2017) Oncol. Lett. 14:801-809). Human CD86 primer sequences are 5′-[…]-3′ (sense) (SEQ ID NO:03) and 5′-[…]-3′ (antisense) (SEQ ID NO:04). Mouse CD80 sequences are 5′-[…]-3′ (sense) (SEQ ID NO:05) and 5′-[…]-3′ (antisense) (SEQ ID NO:06). Cycling conditions were set as per manufacturer's instructions. Single product amplification was confirmed by melting curve analysis. Quantification is expressed in arbitrary units and target mRNA levels were normalized to R-actin expression. […]

WM164 melanoma cells = assay: Flow cytometry-based phagocytosis assay, THP1-derived macrophages with WM164 cells; format: cell-based, human; details: co-culture with WM164 melanoma cells (FIG. 4J)

CCCCN(Cc1ccc(C(=O)NO)cc1)C(=O)Nc1ccccc1 [NextA, Nexturastat A]
phagocytic capacity of macrophages (SM1 melanoma cells): enhanced the phagocytic capacity | M1-associated markers NOS2, CD86, and IL1B (THP1-derived macrophages; THP1-derived M1 macrophages, 5 μM NextA (FIG. 1H)): either unaffected or significantly upregulated | expression of M2-associated markers CD206 and CD209 at the transcriptional level (THP1-derived macrophages; THP1-derived M2 macrophages, 5 μM NextA (FIG. 1I)): significantly downregulated | phagocytosis by unpolarized THP-1 derived macrophages (WM164 melanoma cells): significantly more phagocytic
